Experimental data published in the OligoGym collection.
Several values for one entry are separate records, joined by “and”; a condition that tells them apart may be missing. Equal entries are not always repeated. After the bases stand the sugars from the 5' end (letter, count) and the backbone: PS all phosphorothioate, else s phosphorothioate and o phosphodiester by linkage. Methylation of C is not given here. k = constrained ethyl (cEt); d = 2'-deoxy (DNA)

These sequences were tested against MALAT1. Conditions: ASO, A431, 0.005 µM.

Row | Sequence | target mRNA inhibition
1 | CGCCTGCTACCTTCAT (sugars k3 d10 k3, PS) | 30%
2 | CGCTTTCCCTGTGGCC (sugars k3 d10 k3, PS) | -2%
3 | CGGAAATTTTTCTACC (sugars k3 d10 k3, PS) | 8%
4 | CGGAATTCGATCACCT (sugars k3 d10 k3, PS) | 19%
5 | CGGGATCAGAACAGTA (sugars k3 d10 k3, PS) | 24%
6 | CGTATTTATAGACGGA (sugars k3 d10 k3, PS) | -9%
7 | CGTCATGGATTTCAAG (sugars k3 d10 k3, PS) | 40%
8 | CGTGTGGTTGCCAAGC (sugars k3 d10 k3, PS) | 45%
9 | CTAAACAATTACCTAA (sugars k3 d10 k3, PS) | 3%
10 | CTAAAGGCTTCAGTCC (sugars k3 d10 k3, PS) | 23%
11 | CTAAATCATTGGGAGT (sugars k3 d10 k3, PS) | 48%
12 | CTAACATAGTTCAACC (sugars k3 d10 k3, PS) | 16%
13 | CTAACTTCTGCACCAC (sugars k3 d10 k3, PS) | 38%
14 | CTACTCCAAGCATTGG (sugars k3 d10 k3, PS) | 27%
15 | CTACTGGCTGCATCGA (sugars k3 d10 k3, PS) | 54%
16 | CTATAGCATCTGTGGA (sugars k3 d10 k3, PS) | 29%
17 | CTATATAAGGTCAATA (sugars k3 d10 k3, PS) | 16%
18 | CTATATTTAAGGCCTT (sugars k3 d10 k3, PS) | 26%
19 | CTATCTTCTATACTTC (sugars k3 d10 k3, PS) | 24%
20 | CTATTGGTATTAATTC (sugars k3 d10 k3, PS) | 7%
21 | CTCAATCCACTTGATC (sugars k3 d10 k3, PS) | 32%
22 | CTCACAAAACCCCCGG (sugars k3 d10 k3, PS) | 18%
23 | CTCAGTTACACATCCA (sugars k3 d10 k3, PS) | 70% and 94%

Row | Sequence | target mRNA inhibition
24 | CTCCATGGTTGTCCTA (sugars k3 d10 k3, PS) | 39%
25 | CTCCCCCAACTGCTTG (sugars k3 d10 k3, PS) | 22%
26 | CTCTGATCATAATCTC (sugars k3 d10 k3, PS) | 35%
27 | CTCTGCATCTAGGCCA (sugars k3 d10 k3, PS) | 40%
28 | CTGACTTTGTATGTAA (sugars k3 d10 k3, PS) | 51%
29 | CTGAGGCAAACGAAAC (sugars k3 d10 k3, PS) | -6%
30 | CTGAGTGAAGTGTACT (sugars k3 d10 k3, PS) | 48%
31 | CTGATAAACTCACTGC (sugars k3 d10 k3, PS) | 48%
32 | CTGATAACGAAGAGAT (sugars k3 d10 k3, PS) | -3%
33 | CTGATTATCCTGATAT (sugars k3 d10 k3, PS) | 33%
34 | CTGCAATCATAAACTA (sugars k3 d10 k3, PS) | 10%
35 | CTGCACTGTGCTGTAC (sugars k3 d10 k3, PS) | -5%
36 | CTGCAGAGTTTGAGTG (sugars k3 d10 k3, PS) | -19%
37 | CTGCAGGCTATTACCT (sugars k3 d10 k3, PS) | -6%
38 | CTGGGTCAGCTGTCAA (sugars k3 d10 k3, PS) | 33%
39 | CTGGTACACCCAGTGG (sugars k3 d10 k3, PS) | 4%
40 | CTGGTTAGGTATGAGC (sugars k3 d10 k3, PS) | 3%
41 | CTGTTTAAGTCACCTT (sugars k3 d10 k3, PS) | 76% and 61%
42 | CTTAAAGCACTTCTTG (sugars k3 d10 k3, PS) | -34%
43 | CTTAGTTGGCATCAAG (sugars k3 d10 k3, PS) | 31%
44 | CTTATCTGCGGTTTCC (sugars k3 d10 k3, PS) | 62% and 53%
45 | CTTATCTGTTAACAGC (sugars k3 d10 k3, PS) | 43%
46 | CTTATGGAACTTGAAT (sugars k3 d10 k3, PS) | -5%

Row | Sequence | target mRNA inhibition
47 | CTTCAACATTTGGCCT (sugars k3 d10 k3, PS) | 18%
48 | CTTCTCTAACCCAGTT (sugars k3 d10 k3, PS) | 15%
49 | CTTCTGATAACGAAGA (sugars k3 d10 k3, PS) | -5%
50 | CTTCTGCACCACCAGA (sugars k3 d10 k3, PS) | 13%
51 | CTTGTCTTAGCTTGTT (sugars k3 d10 k3, PS) | 71% and 61%
52 | CTTGTGTTCTCTTGAG (sugars k3 d10 k3, PS) | 13%
53 | CTTTAAGCTGTTTAAG (sugars k3 d10 k3, PS) | -4%
54 | CTTTACACCTCAGTAC (sugars k3 d10 k3, PS) | 38%
55 | CTTTTAATCATACTCC (sugars k3 d10 k3, PS) | 16%
56 | GAAAGCGAGTTCAAGT (sugars k3 d10 k3, PS) | -1%
57 | GAAATCCCCTAGGGAA (sugars k3 d10 k3, PS) | 6%
58 | GAACAGTACTGCATTT (sugars k3 d10 k3, PS) | 28%
59 | GAACTAGTGGTTCCCA (sugars k3 d10 k3, PS) | 46%
60 | GAAGAAGCTTCATCTC (sugars k3 d10 k3, PS) | 15%
61 | GAAGAGCATTGGAGAT (sugars k3 d10 k3, PS) | 49%
62 | GAAGCATACCTTAACA (sugars k3 d10 k3, PS) | 5%
63 | GAAGCCCCTGCGCTGG (sugars k3 d10 k3, PS) | 23%
64 | GAAGGATGAAATGCCT (sugars k3 d10 k3, PS) | 7%
65 | GAAGTGTTTACACTGC (sugars k3 d10 k3, PS) | 11%
66 | GAATCTCAGGGTTATG (sugars k3 d10 k3, PS) | 57% and 76%
67 | GAATTCGATCACCTTC (sugars k3 d10 k3, PS) | -1%
68 | GACAAGGCAGTTATAT (sugars k3 d10 k3, PS) | 1%
69 | GACACTTTCCTTGCCC (sugars k3 d10 k3, PS) | 48%

Row | Sequence | target mRNA inhibition
70 | GACAGACCTAAGGGAA (sugars k3 d10 k3, PS) | 34%
71 | GACAGCTAAGATAGCA (sugars k3 d10 k3, PS) | 12%
72 | GACCTGCCTTCAGGCG (sugars k3 d10 k3, PS) | 13%
73 | GACTGCTTAAAACTGC (sugars k3 d10 k3, PS) | 36%
74 | GACTTGCTCCCAAGAC (sugars k3 d10 k3, PS) | 7%
75 | GAGGCAAGTCCTCATT (sugars k3 d10 k3, PS) | 11%
76 | GAGGTATGACATATAA (sugars k3 d10 k3, PS) | 54% and 49% and 50%
77 | GAGTCATTTGCCTTTA (sugars k3 d10 k3, PS) | 73% and 48%
78 | GAGTGGTTTTATCTAA (sugars k3 d10 k3, PS) | 31%
79 | GAGTTGAGGCAAGTCC (sugars k3 d10 k3, PS) | 52%
80 | GATACCTGTCTGAGGC (sugars k3 d10 k3, PS) | 33%
81 | GATAGTTCAGGGCTTT (sugars k3 d10 k3, PS) | 10%
82 | GATATTTAAGAACTCC (sugars k3 d10 k3, PS) | 38%
83 | GATCATTAAGCCACTT (sugars k3 d10 k3, PS) | 10%
84 | GATCCAAGCTACTGGC (sugars k3 d10 k3, PS) | 18%
85 | GATTAAAGTGTGATAG (sugars k3 d10 k3, PS) | 16%
86 | GATTAGAGAAGAATCC (sugars k3 d10 k3, PS) | 14%
87 | GATTATGGATCATGCC (sugars k3 d10 k3, PS) | 47% and 61%
88 | GATTTGAGCTGCAAAC (sugars k3 d10 k3, PS) | 0%
89 | GATTTTAAGGTTGCAT (sugars k3 d10 k3, PS) | 55% and 38%
90 | GATTTTTACCAACCAC (sugars k3 d10 k3, PS) | 42%
91 | GCAAGTCCTCATTACT (sugars k3 d10 k3, PS) | 50% and 30%
92 | GCAATACTGCAGATGC (sugars k3 d10 k3, PS) | -19%

Row | Sequence | target mRNA inhibition
93 | GCAATATCTTAGTAAC (sugars k3 d10 k3, PS) | 23%
94 | GCACAGCTCGGGCGAG (sugars k3 d10 k3, PS) | -20%
95 | GCACTGGTACACCCAG (sugars k3 d10 k3, PS) | -9%
96 | GCACTTATCCCTAACA (sugars k3 d10 k3, PS) | 58% and 40%
97 | GCAGATTCTGTGTTAT (sugars k3 d10 k3, PS) | -2%
98 | GCAGTTATATTAGGTT (sugars k3 d10 k3, PS) | 15%
99 | GCATATGCAGATAATG (sugars k3 d10 k3, PS) | 36%
100 | GCATCAAGGCACTGAT (sugars k3 d10 k3, PS) | 35%
101 | GCATGTAAGAATTAAG (sugars k3 d10 k3, PS) | 28%
102 | GCATTCTAATAGCAGC (sugars k3 d10 k3, PS) | 10% and 21%
103 | GCATTGGAGATCAGCT (sugars k3 d10 k3, PS) | 11%
104 | GCATTTACTTGCCAAC (sugars k3 d10 k3, PS) | 11%
105 | GCCAACTAATTGCCAA (sugars k3 d10 k3, PS) | 33%
106 | GCCCACAAGGATCCAA (sugars k3 d10 k3, PS) | 15%
107 | GCCCACCCTCTAAGAG (sugars k3 d10 k3, PS) | 18%
108 | GCCCACTCTGATCTGC (sugars k3 d10 k3, PS) | -4%
109 | GCCCAGTAGGCCAGAC (sugars k3 d10 k3, PS) | 25%
110 | GCCCCAGTCCTTTACA (sugars k3 d10 k3, PS) | 3%
111 | GCCCGCACGGAAATTT (sugars k3 d10 k3, PS) | 23%
112 | GCCGCAGGGATTTGAA (sugars k3 d10 k3, PS) | 31%
113 | GCCTCCTCCGTGTGGT (sugars k3 d10 k3, PS) | -1%
114 | GCCTGGTTAGGTATGA (sugars k3 d10 k3, PS) | 21%
